Results taken from the supplement of paper PMC11061612.

How the values were obtained:
Experiment in all cases: Bliss excess, mean over the matrix (fraction); higher = more synergy
[1] = tested on: LOUCY (T-Lymphoblastic Leukemia)
How it was run: (§1)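 Bliss excess equals the observed combination effect minus the expected value EA + EB − EA·EB, where EA and EB are the effects of each agent alone. Combination Emax is the second-highest inhibition within the matrix. Inhibition was scaled from CellTiter-Glo 2.0 luminescence, with 0 set by vehicle wells and 1 by blank wells, after 72 hours of two-drug dosing of cells plated in 1536-well plates.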

[2] = tested on: NCI-H196 (Small Cell Lung Carcinoma)
How it was run: as §1

ES-2 (Ovarian Carcinoma) = tested on: ES-2 (Ovarian Carcinoma)
How it was run: as §1

[3] = tested on: CML-T1 (Chronic Myelogenous Leukemia)
How it was run: as §1

CHL-1 (Melanoma) = tested on: CHL-1 (Melanoma)
How it was run: as §1

[4] = tested on: HTC-C3 (Thyroid Gland Carcinoma)
How it was run: as §1

[5] = tested on: SW684 (Other Solid Carcinomas)
How it was run: as §1

[6] = tested on: LAMA-84 (Chronic Myelogenous Leukemia)
How it was run: as §1

[7] = tested on: BALL-1 (B-Lymphoblastic Leukemia)
How it was run: as §1

[8] = tested on: FLO-1 (Esophageal Adenocarcinoma)
How it was run: as §1

[9] = tested on: RERF-LC-KJ (Lung Adenocarcinoma)
How it was run: as §1

[10] = tested on: NCI-H810 (Non-Small Cell Lung Carcinoma)
How it was run: as §1

[11] = tested on: NCI-H1623 (Lung Adenocarcinoma)
How it was run: as §1

[12] = tested on: COLO-684 (Endometrial Carcinoma)
How it was run: as §1

[13] = tested on: RL95-2 (Endometrial Carcinoma)
How it was run: as §1

[14] = tested on: Becker (Low Grade Glioma)
How it was run: as §1

786-0 (Kidney Carcinoma) = tested on: 786-0 (Kidney Carcinoma)
How it was run: as §1

[15] = tested on: Calu-6 (Non-Small Cell Lung Carcinoma)
How it was run: as §1

[16] = tested on: NCI-H1563 (Lung Adenocarcinoma)
How it was run: as §1

[17] = tested on: PC-14 (Lung Adenocarcinoma)
How it was run: as §1

Structure (SMILES) | Bliss excess [1] | Bliss excess [2] | Bliss excess (ES-2 (Ovarian Carcinoma)) | Bliss excess [3] | Bliss excess (CHL-1 (Melanoma)) | Bliss excess [4] | Bliss excess [5] | Bliss excess [6] | Bliss excess [7] | Bliss excess [8] | Bliss excess [9] | Bliss excess [10] | Bliss excess [11] | Bliss excess [12] | Bliss excess [13] | Bliss excess [14] | Bliss excess (786-0 (Kidney Carcinoma)) | Bliss excess [15] | Bliss excess [16] | Bliss excess [17]
CC1(C)CCC(CN2CCN(c3ccc(C(=O)NS(=O)(=O)c4ccc(NCC5CCOCC5)c([N+](=O)[O-])c4)c(Oc4cnc5[nH]ccc5c4)c3)CC2)=C(c2ccc(Cl)cc2)C1 [Venetoclax] + CCN(CCO)CCCOc1ccc2c(Nc3cc(CC(=O)Nc4cccc(F)c4)[nH]n3)ncnc2c1 [AZD2811] (first compound max 1 µM, 7x7, partner max 1 µM) | -0.0278 | -0.0463 | -0.0388 | 0.104 | 0.0784 | -0.0236 | -0.0043 | -0.0036 | 0.0632 | -0.019 | -0.0222 | -0.034 | -0.0165 | -0.0358 | 0.0814 | 0.0074 | -0.0469 | 0.0331 | 0.0151 | 0.0131
Cn1cnc2c(F)c(Nc3ccc(Br)cc3Cl)c(C(=O)NOCCO)cc21 [Selumetinib] + CC(C)n1c(=O)n(C)c2cnc3cc(F)c(-c4ccc(OCCCN5CCCCC5)nc4)cc3c21 [AZD1390] (first compound max 10 µM, 7x7, partner max 0.3 µM) | -0.0166 | -0.0561 | -0.0215 | -0.0441 | -0.0482 | -0.0092 | -0.0616 | -0.0309 | -0.0156 | -0.0276 | -0.0073 | -0.0525 | 0.0076 | -0.0257 | -0.0663 | -0.007 | -0.0587 | -0.0588 | -0.0229 | -0.0015
Cc1c2c(nn1C)CSCc1cc(n(C)n1)CSc1cc(c3ccccc3c1)OCCCc1c(C(=O)O)n(C)c3c-2c(Cl)ccc13 [AZD5991] + CCN(CCO)CCCOc1ccc2c(Nc3cc(CC(=O)Nc4cccc(F)c4)[nH]n3)ncnc2c1 [AZD2811] (first compound max 1 µM, 7x7, partner max 1 µM) | -0.0389 | -0.029 | -0.0298 | 0.0645 | 0.114 | 0.0318 | -0.069 | 0.128 | 0.213 | 0.0347 | 0.0402 | 0.114 | 0.0711 | 0.0271 | 0.0272 | -0.0165 | -0.0142 | -0.0096 | -0.0248 | 0.0381
C[C@@H](c1ccc2nccn2c1)n1nnc2ncc(-c3cnn(C)c3)nc21 [Savolitinib] + CC1(C)CCC(CN2CCN(c3ccc(C(=O)NS(=O)(=O)c4ccc(NCC5CCOCC5)c([N+](=O)[O-])c4)c(Oc4cnc5[nH]ccc5c4)c3)CC2)=C(c2ccc(Cl)cc2)C1 [Venetoclax] (first compound max 1 µM, 7x7, partner max 1 µM) | -0.0803 | -0.067 | -0.0324 | -0.0156 | -0.0511 | -0.053 | -0.0461 | -0.0111 | -0.0306 | -0.0752 | -0.077 | -0.0517 | -0.046 | -0.0458 | -0.0481 | -0.0182 | -0.0848 | -0.0539 | -0.0691 | -0.0276
NC1(C(=O)N[C@@H](CCO)c2ccc(Cl)cc2)CCN(c2ncnc3[nH]ccc23)CC1 [Capivasertib] + CC(C)n1c(=O)n(C)c2cnc3cc(F)c(-c4ccc(OCCCN5CCCCC5)nc4)cc3c21 [AZD1390] (first compound max 10 µM, 7x7, partner max 0.3 µM) | -0.0101 | -0.0439 | -0.0648 | 0.003 | -0.0209 | -0.0216 | -0.0057 | -0.0119 | -0.0292 | -0.0398 | -0.0017 | -0.0543 | -0.024 | -0.0909 | -0.0709 | -0.0136 | -0.0997 | -0.0391 | 0.0016 | -0.0168
COc1nnc2ccc(N3CCC(c4ccc(OCCN5CCN(C)C(=O)[C@H]5C)cc4)CC3)nn12 [AZD5153] + C[C@@H]1COCCN1C2=NC(=NC(=C2)C3(CC3)[S@](=N)(=O)C)C4=C5C=CNC5=NC=C4 [AZD6738] (first compound max 1 µM, 7x7, partner max 10 µM) | -0.0232 | 0.036 | 0.0316 | -0.0011 | -0.0569 | -0.0187 | -0.042 | 0.0202 | 0.0119 | 0.0257 | 0.0393 | -0.0236 | -0.0247 | -0.0231 | 0.0017 | 0.0137 | 0.0479 | -0.0567 | 0.0203 | 0.0294
CC1(C)CCC(CN2CCN(c3ccc(C(=O)NS(=O)(=O)c4ccc(NCC5CCOCC5)c([N+](=O)[O-])c4)c(Oc4cnc5[nH]ccc5c4)c3)CC2)=C(c2ccc(Cl)cc2)C1 [Venetoclax] + C[C@@H]1COCCN1C2=NC(=NC(=C2)C3(CC3)[S@](=N)(=O)C)C4=C5C=CNC5=NC=C4 [AZD6738] (first compound max 1 µM, 7x7, partner max 10 µM) | -0.0462 | 0.0092 | -0.0372 | 0.0145 | 0.0493 | -0.0354 | -0.0138 | -0.0263 | 0.0053 | -0.0338 | -0.0036 | -0.0356 | 0.0068 | 0.005 | -0.0361 | -0.0388 | -0.0882 | -0.0261 | 0.0131 | -0.021
Cc1c2c(nn1C)CSCc1cc(n(C)n1)CSc1cc(c3ccccc3c1)OCCCc1c(C(=O)O)n(C)c3c-2c(Cl)ccc13 [AZD5991] + C1CN(CCC1(C(=O)N[C@@H](CCO)C2=CC=C(C=C2)Cl)N)C3=NC=NC4=C3C=CN4 [Capivasertib] (first compound max 1 µM, 7x7, partner max 3 µM) | 0.0143 | -0.0499 | -0.0021 | -0.0081 | 0.0092 | -0.0091 | -0.0298 | 0.0007 | 0.0369 | -0.0072 | -0.0112 | 0.0083 | 0.0471 | -0.0411 | 0.0001 | -0.0169 | -0.0189 | 0.0106 | 0.0837 | 0.0145
CN(CCO)CC[C@H](CSc1ccccc1)Nc1ccc(S(=O)(=O)NC(=O)c2ccc(N3CCC([C@@H](O)c4ccccc4-c4ccc(Cl)cc4)CC3)cc2)cc1S(=O)(=O)C(F)(F)F [AZD4320] + Cn1cnc2c(F)c(Nc3ccc(Br)cc3Cl)c(C(=O)NOCCO)cc21 [Selumetinib] (first compound max 1 µM, 7x7, partner max 3 µM) | 0.0255 | -0.0339 | 0.0164 | -0.0155 | -0.0218 | 0.069 | 0.0194 | 0.0207 | -0.0246 | 0.0109 | 0.0144 | -0.0577 | 0.162 | 0.0023 | 0.137 | 0.0084 | -0.0187 | -0.0019 | 0.045 | 0.0379
CN(C)CCCOc1ccc(-c2ccc3ncc4c(c3c2)n(C2CCOCC2)c(=O)n4C)cn1 [AZD0156] + CCN(CCO)CCCOc1ccc2c(Nc3cc(CC(=O)Nc4cccc(F)c4)[nH]n3)ncnc2c1 [AZD2811] (first compound max 1 µM, 7x7, partner max 1 µM) | -0.0646 | -0.05 | -0.0163 | 0.0352 | 0.0015 | -0.0198 | -0.0583 | -0.021 | 0.171 | -0.0376 | -0.004 | 0.0302 | -0.0321 | -0.0036 | 0.0016 | -0.0293 | -0.0107 | -0.0112 | -0.006 | -0.0042
NC1(C(=O)N[C@@H](CCO)c2ccc(Cl)cc2)CCN(c2ncnc3[nH]ccc23)CC1 [Capivasertib] + CC(=O)c1c(C)c2cnc(Nc3ccc(N4CCNCC4)cn3)nc2n(C2CCCC2)c1=O [Palbociclib] (first compound max 10 µM, 7x7, partner max 10 µM) | 0.0824 | -0.0706 | 0.0008 | 0.0054 | -0.0082 | 0.0437 | 0.0176 | 0.0059 | 0.0245 | -0.0218 | 0.0307 | -0.0346 | -0.0156 | -0.0759 | 0.0215 | 0.0816 | 0.0245 | 0.0488 | -0.0456 | 0.0388
COc1cccc(OCCCN)c1-c1cc(Nc2cnc(C#N)cn2)n[nH]1 [Prexasertib] + C[C@@H]1COCCN1C2=NC(=NC(=C2)C3(CC3)[S@](=N)(=O)C)C4=C5C=CNC5=NC=C4 [AZD6738] (first compound max 1 µM, 7x7, partner max 10 µM) | -0.0009 | -0.049 | -0.0375 | -0.0309 | 0.0139 | -0.0034 | -0.018 | -0.0052 | -0.001 | -0.0233 | -0.0002 | -0.0519 | -0.0745 | -0.0733 | -0.0487 | -0.0317 | -0.0219 | -0.0852 | -0.0878 | -0.047
CN(CCO)CC[C@H](CSc1ccccc1)Nc1ccc(S(=O)(=O)NC(=O)c2ccc(N3CCC([C@@H](O)c4ccccc4-c4ccc(Cl)cc4)CC3)cc2)cc1S(=O)(=O)C(F)(F)F [AZD4320] + C[C@@H](Nc1cc(F)cc(F)c1)c1cc(C(=O)N(C)C)cc2c(=O)cc(N3CCOCC3)oc12 [AZD8186] (first compound max 1 µM, 7x7, partner max 3 µM) | 0.0111 | 0.0427 | 0.0151 | 0.0035 | 0.0322 | 0.0311 | -0.0356 | 0.0355 | 0.0506 | -0.0261 | 0.0703 | -0.0461 | 0.0105 | 0.0193 | -0.0036 | 0.0186 | -0.0081 | 0.0264 | 0.0295 | 0.0228
NC1(C(=O)N[C@@H](CCO)c2ccc(Cl)cc2)CCN(c2ncnc3[nH]ccc23)CC1 [Capivasertib] + Cn1cnc2c(F)c(Nc3ccc(Br)cc3Cl)c(C(=O)NOCCO)cc21 [Selumetinib] (first compound max 10 µM, 7x7, partner max 10 µM) | 0.0806 | -0.0436 | 0.0171 | 0.0217 | 0.0588 | 0.0677 | 0.0495 | 0.0548 | 0.0317 | 0.0307 | 0.0517 | -0.014 | 0.0623 | -0.0343 | 0.0367 | 0.0788 | 0.0614 | 0.0038 | -0.119 | 0.0938
